Laboratory results published in US20190083497A1, “MODULATION OF BLOOD BRAIN BARRIER PERMEABILITY” (Cornell University, priority 2008, published 2019).

Tests used:
Type in all cases: in vivo, mouse
[1] = system: blood brain barrier; test: FITC-Dextran extravasation through the brain endothelium; details: wild type mice (FIG. 16)
Procedure: In order to examine the effects of caffeine, a general adenosine receptor antagonist, on blood brain barrier permeability, mice were fed caffeine for several days and then injected with FITC Dextran, commonly used to assess endothelial permeability.
More particularly, mice were fed 0.6 g/l caffeine (Sigma, St. Louis, Mo.) in water or regular water ad lib for five days. Mice were injected IP with FITC Dextran (10,000 MW, Molecular Probes, Eugene, Oreg.) and after 30 minutes mice were perfused with ice cold PBS via the left ventricle. Brains were removed and snap frozen in OCT (Tissue Tek, Torrance, Calif.) and stored at −80° C. until sectioning. Tissue sections (5 μm) were stained with hematoxylin for light microscopy and with DAPI for a fluorescent counterstain.

[2] = system: EAE-induced mice; test: EAE induction and scoring (MOG35-55/CFA + pertussis toxin); details: wild type mice; 2 mg/kg (1 mg/kg s.c. and 1 mg/kg i.p.) in 45% DMSO, 1 day prior to and daily for 30 days; vs DMSO alone
Procedure: C57BL/6 and tcrα^−/− mice on the C57BL/6 background were purchased from The Jackson Laboratories. Mice were bred and housed under specific pathogen-free conditions at Cornell University or the University of Turku. For adenosine receptor blockade experiments, mice were given drinking water supplemented with 0.6 g/L of caffeine (Sigma) or 2 mg/kg SCH58261 (1 mg/kg s.c. and 1 mg/kg i.p.) in DMSO (45% vol. in PBS) or 45% DMSO alone starting 1 day before EAE induction and continuing throughout the experiment. All procedures performed on mice were approved by the relevant animal review committee.
EAE was induced by subjecting mice to the myelin oligodendrocyte glycoprotein (“MOG”) EAE-inducing regimen as described in Swanborg, “Experimental Autoimmune Encephalomyelitis in Rodents as a Model for Human Demyelinating Disease,” Clin. Immunol. […] Briefly, a 1:1 emulsion of MOG35-55 peptide (3 mg/ml in PBS) (Invitrogen) and complete Freund's adjuvant (CFA, Sigma) was injected subcutaneously (50 μl) into each flank. Pertussis toxin (PTX, 20 ng) (Biological Laboratories Inc.) was given intravenously (200 μl in PBS) at the time of immunization and again 2 days later. Mice were scored daily for EAE based on disease symptom severity; 0=no disease, 0.5 -1=weak/limp tail, 2=limp tail and partial hind limb paralysis, 3=total hind limb paralysis, 4=both hind limb and fore limb paralysis, 5=death. Mice with a score of 4 were euthanized.
Wild type mice were given 1 mg/kg of SCH58261 in DMSO or DMSO alone both i.p. and s.c. (for a total of 2 mg/kg) 1 day prior to EAE induction and daily for 30 days throughout the course of the experiment (FIG. 7C).

[3] = system: ICAM-1; test: ICAM-1 expression at the choroid plexus after EAE induction (immunohistochemistry); details: wild type mice, day 15 post-EAE induction; 2 mg/kg daily; vs DMSO
Procedure: Mice were treated with the A2a adenosine receptor antagonist SCH58261 2 mg/kg (1 mg/kg given s.c. and 1 mg/kg given i.p.) in DMSO (n=4 mice/group) or DMSO alone (n=5 mice/group) 1 day prior to and daily up to day 30 following EAE induction. […] Frozen tissue sections from day 15 post-EAE induction in SCH58261 and DMSO treated mice were examined for ICAM-1 expression at the choroid plexus. WT treated DMSO (left) or SCH58261 (right) and stained for ICAM-1 (red staining, white arrows) and DAPI (blue, nuclei) at 40× magnification. Images are from 4 separate mice.
Anesthetized mice were perfused with PBS, and brains, spleens, and spinal cords were isolated and snap frozen in Tissue Tek-OCT medium. […]
(§1) As CD73 catalyzes the breakdown of AMP to adenosine and ARs are expressed in the CNS (Tsutsui et al., “A1 Adenosine Receptor Upregulation and Activation Attenuates Neuroinflammation and Demyelination in a Model of Multiple Sclerosis,” J. Neurosci. 24:1521-1529 (2004)); Rosi et al., The Influence of Brain Inflammation Upon Neuronal Adenosine A2B Receptors,” J. Neurochem. 86:220-227 (2003), which are hereby incorporated by reference in their entirety), it was next determined if AR signaling is important during EAE progression. […] Since CD73 is highly expressed on the choroid plexus (FIG. 6C), it was next determined if ARs are also expressed on the choroid plexus. […]

[4] = system: CNS lymphocyte infiltration; test: CD4+ infiltrating lymphocytes in brain and spinal cord after EAE induction (immunohistochemistry); details: wild type mice, day 15 post-EAE induction; 2 mg/kg daily; vs DMSO treated mice
Procedure: FIGS. 7A-7D show adenosine receptor blockade protects mice from EAE development. […] Results are from one experiment (n=5 mice per group). […] Samples were run in triplicate; error bars represent the standard error of the mean. […] Eight anatomically similar fields per brain and 4 fields per spinal cord per mouse were analyzed at 10×magnification (n=4 mice). Error bars represent the standard error of the mean.
Anesthetized mice were perfused with PBS, and brains, spleens, and spinal cords were isolated and snap frozen in Tissue Tek-OCT medium. Five μm sections (brains in a sagittal orientation) were affixed to Supefrost/Plus slides (Fisher), fixed in acetone, and stored at −80° C. […]
as §1

Question: `Nc1nc2c(cnn2CCc2ccccc2)c2nc(-c3ccco3)nn12` [SCH58261] was tested. Which “FITC-Dextran extravasation across the blood brain barrier” value [1] did it give?
Answer: The value was “inhibit FITC-Dextran extravasation”.

Question: And the “EAE development (mean EAE score)” value [2]?
Answer: Its value is “dramatically protected against EAE development”.

Question: And the “ICAM-1 up regulation on the choroid plexus” value [3]?
Answer: Its value is “prevented the up regulation of ICAM-1”.

Question: And the “frequency of CD4 lymphocytes in the brain and spinal cord” value [4]?
Answer: The value was “significantly lower frequency of CD4 lymphocytes in the brain and spinal cord”.
